The assay relates to RSV strain A2. The assay is described as follows: RSV antiviral cytoprotection assay in Hep2 cells (96-well and 384-well format, Cell TiterGlo read-out). In kind it is cell-based, Respiratory Syncytial Virus (RSV). To be noted: human respiratory syncytial virus; for inhibition at 0.5 µM: HEp-2, 0.5 uM; for EC50: HEp-2, RSV-induced cytopathic effects, Hep2 cells, class symbols.
The mark [1] stands for this setting: RSV-induced cytopathic effect in Hep2 cells, calculated from fitted dose response curve, normalized to 0% and 100%.

As a reminder, the inhibition is the relative decrease from the control value, in per cent. The EC50 is the concentration needed to bring the measured effect to its halfway point. `CC1(O)CN(c2cc(N3CCC3)nc3cc([C@@H]4CCCCN4C(=O)c4cc(Cl)ccc4NS(C)(=O)=O)nn23)C1` [Compound 105]: the EC50 lay within 0.1 to 100 nM. Besides, the inhibition at 0.5 µM under setting [1] was 100%.

`Cc1cn2nc([C@@H]3CCCCN3C(=O)c3cc(Cl)ccc3NS(C)(=O)=O)cc2nc1N1CCC(O)CC1` [Compound 218]: the EC50 was 101 to 1000 nM. For the same compound, under setting [1], the inhibition at 0.5 µM was 72%.

Consider `Cc1ccc(C(=O)N2CCCC[C@H]2c2cc3nc(N4CC[C@H](N)C4)c(C)cn3n2)c(F)c1` [Compound 298], for which the EC50 fell in the range of 101 to 1000 nM. The inhibition at 0.5 µM under setting [1] is 21%.

Consider `Cc1cn2nc([C@@H]3CCCCN3C(=O)c3ccc(-c4cccnc4)cc3)cc2nc1N1CC[C@H](N)C1` [Compound 408], for which the EC50 lay within 101 to 1000 nM. Under setting [1], the inhibition at 0.5 µM is 59%.

Consider `CS(=O)(=O)Nc1ccc(Cl)cc1C(=O)N1CCCC[C@H]1c1cc2nc(C3CC3)cc(N3CCOCC3)n2n1` [Compound 63], for which the EC50 lay within 0.1 to 100 nM. Moreover, the inhibition at 0.5 µM under setting [1] is 98%.

As for `Cc1[nH]c2cc([C@@H]3C[C@@H](C)CCN3C(=O)c3cc(F)ccc3NS(C)(=O)=O)nn2c(=O)c1C` [Compound 22], the EC50 fell in the range of 0.1 to 100 nM. For the same compound, the inhibition at 0.5 µM under setting [1] was 95%. Moreover, the inhibition at 1 µM (HEp-2, 1 uM, RSV-induced cytopathic effect in Hep2 cells, calculated from fitted dose response curve, normalized to 0% and 100%) was 99%.

Regarding `C[C@H]1CN(c2cc(N3CCC3)nc3cc([C@@H]4CCCCN4C(=O)c4cc(Cl)ccc4NS(C)(=O)=O)nn23)CCN1` [Compound 155], the EC50 lay within 0.1 to 100 nM. The inhibition at 0.5 µM under setting [1] was 100%.

`Cc1nc2cc([C@@H]3CCCCN3C(=O)c3ccccc3NS(C)(=O)=O)nn2c(N(C)C)c1C` [Compound 100]: the EC50 was 0.1 to 100 nM. For the same compound, the inhibition at 0.5 µM under setting [1] is 96%.

Regarding `CS(=O)(=O)Nc1ccc(Cl)cc1C(=O)N1CCCC[C@H]1c1cc2nc(N3CCC3)cc(N3CCCNCC3)n2n1` [Compound 156], the EC50 was 0.1 to 100 nM. The inhibition at 0.5 µM under setting [1] is 100%.

`Cc1ccc(NS(C)(=O)=O)c(C(=O)N2Cc3ccccc3C[C@H]2c2cc3nc(C)c(C)cn3n2)c1` [Compound 35]: the EC50 is 0.1 to 100 nM. Besides, under setting [1], the inhibition at 0.5 µM was 96%.

Regarding `Cc1cn2nc([C@@H]3CCCCN3C(=O)c3cc(Cl)ccc3NS(C)(=O)=O)cc2nc1N1CCC[C@@H](N)C1` [Compound 231], the EC50 lay in the range of 0.1 to 100 nM. For the same compound, the inhibition at 0.5 µM under setting [1] is 98%.

`Cc1cn2nc([C@@H]3CCCCN3C(=O)c3cn4ccsc4n3)cc2nc1N1CC[C@H](N)C1` [Compound 327]: the EC50 lay in the range of 0.1 to 100 nM. Also, under setting [1], the inhibition at 0.5 µM is 100%.

For the compound `Cc1cn2nc([C@@H]3CCCCN3C(=O)c3cc(-c4ccco4)n[nH]3)cc2nc1N1CC[C@H](N)C1` [Compound 360], the EC50 fell in the range of 101 to 1000 nM. For the same compound, the inhibition at 0.5 µM under setting [1] was 66%.

On to `Cc1cn2nc([C@@H]3CCCCN3C(=O)c3cc(Cl)ccc3Cl)cc2nc1N1CC[C@H](N)C1` [Compound 391], for which the EC50 lay within 0.1 to 100 nM. For the same compound, the inhibition at 0.5 µM under setting [1] is 99%.

On to `CS(=O)(=O)Nc1ccc(Cl)cc1C(=O)N1CCCC[C@H]1c1cc2nc(N3CCC3)cc(N3CCNC(C(F)(F)F)C3)n2n1` (stereo partly shown) [Compound 159], for which the EC50 was 0.1 to 100 nM. For the same compound, the inhibition at 0.5 µM under setting [1] is 100%.

Consider `Cc1cn2nc([C@@H]3CCCCN3C(=O)c3cc(C)n(C(F)F)n3)cc2nc1N1CC[C@H](N)C1` [Compound 355], for which the EC50 was in the range of 0.1 to 100 nM. The inhibition at 0.5 µM under setting [1] is 96%.

Consider `Cc1ccc(NS(C)(=O)=O)c(C(=O)N2CCCC[C@H]2c2cc3nc(N4CCC4)c(C)cn3n2)c1` [Compound 189], for which the EC50 was in the range of 0.1 to 100 nM. For the same compound, under setting [1], the inhibition at 0.5 µM is 100%.

Turning to `Cc1cn2nc([C@@H]3CCCCN3C(=O)c3ccc4c(c3)OCCO4)cc2nc1N1CC[C@H](N)C1` [Compound 364], the EC50 was 0.1 to 100 nM. Further, the inhibition at 0.5 µM under setting [1] was 99%.

Consider `Cc1cn2nc([C@@H]3CCCCN3C(=O)c3cccc4nnnn34)cc2nc1N1CC[C@H](N)C1` [Compound 316], for which the EC50 lay in the range of 0.1 to 100 nM. Also, under setting [1], the inhibition at 0.5 µM was 100%.

For `Cc1cn2nc([C@@H]3CCCCN3C(=O)c3cc(Cl)ccc3NS(C)(=O)=O)cc2nc1N1CCN=C1N` [Compound 146], the 50% effective concentration (EC50) fell in the range of 0.1 to 100 nM. In addition, under setting [1], the inhibition at 0.5 µM was 99%.

For the compound `Cc1cn2nc([C@@H]3CCCCN3C(=O)c3ccnn3C)cc2nc1N1CC[C@H](N)C1` [Compound 263], the EC50 lay in the range of 0.1 to 100 nM. In addition, the inhibition at 0.5 µM under setting [1] was 99%.

As to `Cc1cn2nc([C@@H]3CCCCN3C(=O)c3ccc4c(c3)nnn4C)cc2nc1N1CC[C@H](N)C1` [Compound 359], the EC50 was in the range of 0.1 to 100 nM. In addition, the inhibition at 0.5 µM under setting [1] was 100%.

On to `COC1CN(c2nc3cc([C@@H]4CCCCN4C(=O)c4cc(Cl)ccc4NS(C)(=O)=O)nn3cc2C)CC1N` (stereo partly shown) [Compound 167], for which the EC50 was 0.1 to 100 nM. Besides, the inhibition at 0.5 µM under setting [1] is 100%.

As to `Cc1cn2nc([C@@H]3CCCCN3C(=O)c3cc(C)c(F)c(C)c3)cc2nc1N1CC[C@H](N)C1` [Compound 326], the EC50 lay within 0.1 to 100 nM. The inhibition at 0.5 µM under setting [1] is 100%.

Consider `Cc1cc(C)n2ncc(C(=O)N3CCCC[C@H]3c3cc4nc(N5CC[C@H](N)C5)c(C)cn4n3)c2n1` [Compound 394], for which the EC50 lay within 0.1 to 100 nM. Under setting [1], the inhibition at 0.5 µM was 100%.

Turning to `Cc1cn2nc([C@@H]3CCCCN3C(=O)c3cc4ncccn4n3)cc2nc1N1CC[C@H](N)C1` [Compound 315], the EC50 fell in the range of 0.1 to 100 nM. The inhibition at 0.5 µM under setting [1] was 100%.

`CS(=O)(=O)Nc1ccc(Cl)cc1C(=O)N1CCCC[C@H]1c1cc2nc(N3CCCO3)cc(N3CCOCC3)n2n1` [Compound 70]: the EC50 is 0.1 to 100 nM. In addition, under setting [1], the inhibition at 0.5 µM was 99%.

As for `CN(C)[C@H]1CCN(c2cc(N3CCC3)nc3cc([C@@H]4CCCCN4C(=O)c4cc(Cl)ccc4NS(C)(=O)=O)nn23)C1` [Compound 76], the EC50 fell in the range of 0.1 to 100 nM. In addition, under setting [1], the inhibition at 0.5 µM was 100%.

As for `Cc1cn2nc([C@@H]3CCCCN3C(=O)c3cccc(Cl)n3)cc2nc1N1CC[C@H](N)C1` [Compound 305], the EC50 lay in the range of 0.1 to 100 nM. Under setting [1], the inhibition at 0.5 µM was 100%.

`Cc1ccc(C(=O)N2CCCC[C@H]2c2cc3nc(N4CC[C@H](N)C4)c(C)cn3n2)cc1Cl` [Compound 332]: the EC50 was 0.1 to 100 nM. Also, the inhibition at 0.5 µM under setting [1] was 100%.

For `Cc1ccc(NS(C)(=O)=O)c(C(=O)N2CCCC[C@H]2c2cc3nc(C)c(C)c(-c4ccccc4)n3n2)c1` [Compound 86], the EC50 lay in the range of 0.1 to 100 nM. Besides, the inhibition at 0.5 µM under setting [1] was 99%.

For the compound `Cc1ccc(NS(C)(=O)=O)c(C(=O)N2CCCC[C@H]2c2cc3nc(C)c(C)c(NC4CC4)n3n2)c1` [Compound 102], the EC50 was in the range of 0.1 to 100 nM. Also, the inhibition at 0.5 µM under setting [1] was 98%.

With `CS(=O)(=O)Nc1ccc(Cl)cc1C(=O)N1CCCC[C@H]1c1cc2nc(N3CCC3)cc(CO)n2n1` [Compound 254], the EC50 is 0.1 to 100 nM. Also, under setting [1], the inhibition at 0.5 µM is 90%.

In the case of `Cc1cn2nc([C@@H]3CCCCN3C(=O)c3cnn(C)c3C)cc2nc1N1CC[C@H](N)C1` [Compound 279], the EC50 lay in the range of 101 to 1000 nM. Further, the inhibition at 0.5 µM under setting [1] was 63%.

Turning to `C[C@@H]1CN(c2cc(N3CCC3)nc3cc([C@@H]4CCCCN4C(=O)c4cc(Cl)ccc4NS(C)(=O)=O)nn23)C[C@H](C)O1` [Compound 107], the EC50 lay within 0.1 to 100 nM. Moreover, the inhibition at 0.5 µM under setting [1] was 100%.

For the compound `CS(=O)(=O)Nc1ccc(Cl)cc1C(=O)N1CCCC[C@H]1c1cc2nc(N3CCC3)cc(N3CCN(CCF)CC3)n2n1` [Compound 166], the EC50 lay within 0.1 to 100 nM. Further, the inhibition at 0.5 µM under setting [1] was 100%.

Consider `Cc1cn2nc([C@@H]3CCCCN3C(=O)c3cc(Cl)ccc3NS(C)(=O)=O)cc2nc1N1CC(OC(=O)[C@@H]2CCCN2)C1` [Compound 171], for which the EC50 fell in the range of 0.1 to 100 nM. Also, the inhibition at 0.5 µM under setting [1] was 100%.

For the compound `Cc1ccc(NS(C)(=O)=O)c(C(=O)N2CCCC[C@H]2c2cc3nc(N4CC[C@H](N)C4)c(C)cn3n2)c1` [Compound 190], the EC50 lay in the range of 0.1 to 100 nM. In addition, the inhibition at 0.5 µM under setting [1] was 100%.

Turning to `Cc1ccc(O)cc1C(=O)N1CCCC[C@H]1c1cc2nc(N3CC[C@H](N)C3)c(C)cn2n1` [Compound 292], the EC50 lay within 101 to 1000 nM. Moreover, under setting [1], the inhibition at 0.5 µM was 59%.

As to `Cc1cn2nc([C@@H]3CCCCN3C(=O)c3cc(Cl)ccc3NS(C)(=O)=O)cc2nc1N1CC(N)C(F)C1` (stereo partly shown) [Compound 250], the EC50 fell in the range of 0.1 to 100 nM. In addition, the inhibition at 0.5 µM under setting [1] is 90%.

As for `CS(=O)(=O)Nc1ccc(Cl)cc1C(=O)N1CCCC[C@H]1c1cc2nc(N3CC[C@@H](C#N)C3)cc(N3CCOCC3)n2n1` [Compound 228], the EC50 is 0.1 to 100 nM. For the same compound, under setting [1], the inhibition at 0.5 µM was 100%.

Turning to `Cc1cn2nc([C@@H]3CCCCN3C(=O)c3ocnc3C)cc2nc1N1CC[C@H](N)C1` [Compound 265], the EC50 fell in the range of 0.1 to 100 nM. Also, the inhibition at 0.5 µM under setting [1] is 100%.

As for `CC(=O)Nc1ccc(Cl)cc1C(=O)N1CCCC[C@H]1c1cc2nc(C3CC3)cc(C)n2n1` [Compound 66], the EC50 was in the range of 0.1 to 100 nM. In addition, under setting [1], the inhibition at 0.5 µM was 99%.

Turning to `Cc1cn2nc([C@@H]3CCCCN3C(=O)c3cccc(-n4cnnc4)n3)cc2nc1N1CC[C@H](N)C1` [Compound 389], the EC50 was 0.1 to 100 nM. Moreover, the inhibition at 0.5 µM under setting [1] was 98%.

For `Cc1cn2nc([C@@H]3CCCCN3C(=O)c3ccc4cccnc4c3)cc2nc1N1CC[C@H](N)C1` [Compound 343], the EC50 lay within 101 to 1000 nM. In addition, the inhibition at 0.5 µM under setting [1] is 60%.

With `Cc1cn2nc([C@@H]3CCCCN3C(=O)c3cc(-c4cccnc4)n[nH]3)cc2nc1N1CC[C@H](N)C1` [Compound 384], the EC50 was 101 to 1000 nM. For the same compound, under setting [1], the inhibition at 0.5 µM was 48%.

With `Cc1cn2nc([C@@H]3CCCCN3C(=O)c3cc(Cl)ccc3NS(C)(=O)=O)cc2nc1N1C[C@@H](N)C[C@H]1CO` [Compound 211], the EC50 lay within 0.1 to 100 nM. In addition, the inhibition at 0.5 µM under setting [1] was 100%.

Regarding `Cc1cn2nc([C@@H]3CCCCN3C(=O)c3cc(C)n(C)n3)cc2nc1N1CC[C@H](N)C1` [Compound 280], the EC50 was 101 to 1000 nM. In addition, under setting [1], the inhibition at 0.5 µM is 60%.

The values above are taken from US9238039B2, “Pyrazolo[1,5-A]pyrimidines for antiviral treatment” (Gilead Sciences, Inc., priority 2010, dated 2016).
